Test results as given in patent publication US12304912B2, “Fused bicyclic RAF inhibitors and methods for use thereof” (Jazz Pharmaceuticals Ireland Limited, priority 2020, dated 2025).
Where a name gives a salt, the structure may show the parent alone.

How the values were obtained:
[1] = Plasma protein binding assay, human plasma (hPPB); type: in vitro ADME; conditions: 5 μM
Summary of the method: (§1)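 Equilibrium dialysis of 5 μM compound in previously frozen human or mouse plasma against phosphate buffer, 4 h at 37 °C. Both chambers quantified by LC-MS/MS; % free = (1−((PC−PF)/PC))×100.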

[2] = Plasma protein binding assay, mouse plasma (mPPB); type: in vitro ADME; conditions: 5 μM
Summary of the method: as §1

[3] = tested on: BRAF monomers in A375 cells; test: A375 AlphaLISA SureFire pERK1/2 cellular assay (monomer); type: cell-based; conditions: Homo sapiens, A-375; A375 cells, 1 hr; read-out: pERK A375 (1 hr) pIC50 (converted)
Summary of the method: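 BRAF^V600E A375 melanoma cells seeded at 30,000/well in DMEM with 10% FBS, dosed without medium exchange in a 10-point series from 10 μM at 1/2-log steps, 1 h at 37 °C. Phospho-ERK1/2 (Thr202/Tyr204) measured in lysates by AlphaLISA SureFire; absolute IC50 relative to DMSO control.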

[4] = Microsomal stability assay, mouse liver microsomes (MLM); type: in vitro ADME; conditions: 0.5 mg/mL protein, 1 μM substrate
Summary of the method: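 Substrate depletion: 1 μM compound incubated at 37° C. with cryopreserved mouse or human liver microsomes at 0.5 mg·mL^−1 protein. Timed aliquots quenched in ice-cold organic solvent and measured by LC-MS/MS; t1/2 and CLint derived from the slope of ln % remaining versus time.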

[5] = equilibrium dialysis 4 hours at 37° C.
[6] = equilibrium dialysis 4 hours 37° C.

SMILES | hPPB (% free) [1, 5] [% free] | mPPB (% free) [2, 5] [% free] | IC50 [3] [nM] | hPPB (% free) [1, 6] [% free] | microsomal CLint at 1 μM [4] [µL/min/mg] | mPPB (% free) [2, 6] [% free] | microsomal CLint at 1 μM ([4]; 37° C.) [µL/min/mg] | MLM (CLint) ([4]; 37° C.) [µL/min/mg]
CC(C)CCc1c[nH]c(C2COc3ccc(Oc4ccnc5c4CCC(=O)N5)cc3C2)n1 (centres unmarked) [Compound 116] | 0.13 | 0.23 | 46.8 |  |  |  |  | 
O=C1CCc2c(Oc3ccc4c(c3)CN(c3nc(-c5ccccc5)n[nH]3)CC4)ccnc2N1 [Compound 44, 5-[[2-(3-phenyl-1H-1,2,4-triazol-5-yl)-3,4-dihydro-1H-isoquinolin-7-yl]oxy]-3,4-dihydro-1H-1,8-naphthyridin-2-one hydrochloride] |  |  | 1200 | 0.3 | 11 | 0.9 |  | 
Cc1cc(-c2c[nH]c(C3COc4ccc(Oc5ccnc6c5CCC(=O)N6)cc4C3)n2)ccn1 (centres unmarked) [Compound 117, 5-[3-[4-(2-methyl-4-pyridyl)-1H-imidazol-2-yl]chroman-6-yl]oxy-3,4-dihydro-1H-1,8-naphthyridin-2-one] | 2.6 | 2.3 | 724 |  |  |  | 13.4 | 
O=C(Cn1ccnc1)Nc1cc(Oc2ccc3c(c2)CC(c2nc(-c4ccccc4)c[nH]2)CO3)ccn1 (centres unmarked) [Compound 144] | 0.7 | 0.8 | 204 |  |  |  | 29.3 | 
CC1CC1C(=O)Nc1cc(Oc2ccc3c(c2)CC(c2nc(-c4ccccc4)c[nH]2)CO3)ccn1 (centres unmarked) [Compound 157] | <0.1 | <0.1 | 525 |  |  |  |  | 277
Cn1nc(C(F)(F)F)cc1-c1c[nH]c(C2COc3ccc(Oc4ccnc5c4CCC(=O)N5)cc3C2)n1 (centres unmarked) [Compound 107, 5-[3-[4-[2-methyl-5-(trifluoromethyl)pyrazol-3-yl]-1H-imidazol-2-yl]chroman-6-yl]oxy-3,4-dihydro-1H-1,8-naphthyridin-2-one] | 0.7 | 0.3 | 178 |  |  |  | 12.5 | 
O=C1CCc2c(Oc3ccc4c(c3)CC(c3nc5cc(C(F)(F)F)ncc5[nH]3)CO4)ccnc2N1 (racemic) [Compound 32] |  |  | 251 | 1.3 | 8.3 | 3.2 |  | 
CN1CCC(C(=O)Nc2cc(Oc3ccc4c(c3)CC(c3nc(-c5ccccc5)c[nH]3)CO4)ccn2)CC1 (centres unmarked) [Compound 147, 1-methyl-N-[4-[3-(4-phenyl-1H-imidazol-2-yl)chroman-6-yl]oxy-2-pyridyl]piperidine-4-carboxamide] | 0.5 | 0.8 | 631 |  |  |  | 102 | 
COc1cc(-c2c[nH]c(C3COc4ccc(Oc5ccnc6c5CCC(=O)N6)cc4C3)n2)ccn1 (centres unmarked) [Compound 104] | 1.9 | 1.5 |  |  |  |  |  | 23
CC(C)(C)CCc1c[nH]c(C2COc3ccc(Oc4ccnc5c4CCC(=O)N5)cc3C2)n1 (centres unmarked) [Compound 115, 5-[3-[4-(3,3-dimethylbutyl)-1H-imidazol-2-yl]chroman-6-yl]oxy-3,4-dihydro-1H-1,8-naphthyridin-2-one] | 0.3 | 0.3 | 13.8 |  |  |  |  | 
Cn1nc(C2CC2)cc1-c1c[nH]c(C2COc3ccc(Oc4ccnc5c4CCC(=O)N5)cc3C2)n1 (centres unmarked) [Compound 125, 5-[3-[4-(5-cyclopropyl-2-methyl-pyrazol-3-yl)-1H-imidazol-2-yl]chroman-6-yl]oxy-3,4-dihydro-1H-1,8-naphthyridin-2-one] |  |  | 4470 |  |  |  |  | 
O=C1CCc2c(Oc3ccc4c(c3)CC(c3nc(-c5cccnc5C(F)(F)F)c[nH]3)CO4)ccnc2N1 (centres unmarked) [Compound 128, 5-[3-[4-[2-(trifluoromethyl)-3-pyridyl]-1H-imidazol-2-yl]chroman-6-yl]oxy-3,4-dihydro-1H-1,8-naphthyridin-2-one] | 0.9 | 1.2 | 832 |  |  |  |  | 
